In US6677466B1, “Method for stabilizing hydrogen peroxide” (DSM Fine Chemicals Austria NFG GmbH & Co KG, priority 1999, dated 2004):

Assay: O2 evolution from RuO2.xH2O-catalysed decomposition of H2O2 with stabilizer
Type: physicochemical
Protocol: A 50% strength aqueous solution of H2O2 (304 mg; 4.46 mmol) was added to 454 mg (4.46 mmol) of methyl pyruvate and to 535 mg (4.46 mmol) of glyoxylic methyl ester methyl hemiacetal, respectively. In the case of methyl pyruvate, a marked evolution of heat was discovered during the addition. After one hour, the H2O2/α-keto ester mixture was mixed with 1 ml of solvent and added to a suspension of 2.5 mg of RuO2.xH2O catalyst (Aldrich) in 4 ml of solvent. The suspension was introduced into a 50 ml flask which was maintained at room temperature in a water bath.
As a comparison, a suspension of 2.5 mg of RuO2.xH2O catalyst (Aldrich) in 4 ml of solvent was combined with a 50% strength aqueous solution of H2O2 (304 mg; 4.46 mmol) and 1 ml of solvent without stabilizer.
The amount of oxygen which […] the decomposition of the hydrogen peroxide was determined as a function of time using a Brooks meter, which permitted measurement of the gas flow and of the total amount of evolved gas.
The amount of oxygen is defined here as % of the maximum amount to be calculated on the basis of stoichiometry.

For COC(=O)C(C)=O [methyl pyruvate], the “O2 evolution V(O2) (Vmax(O2)*100%)” value (solv. acetic acid, t 1 min) was 0%, the “O2 evolution V(O2) (Vmax(O2)*100%)” value (solv. acetic acid, t 2 min) was 0% and the “O2 evolution V(O2) (Vmax(O2)*100%)” value (solv. acetic acid, t 5 min) was 2%. For the same compound, the “O2 evolution V(O2) (Vmax(O2)*100%)” value (solv. acetic acid, t 10 min) was 4%, the “O2 evolution V(O2) (Vmax(O2)*100%)” value (solv. acetic acid, t 15 min) was 4% and the “O2 evolution V(O2) (Vmax(O2)*100%)” value (solv. acetic acid, t 20 min) was 4%. For the same compound, the “O2 evolution V(O2) (Vmax(O2)*100%)” value (solv. acetic acid, t 25 min) was 4%, the “O2 evolution V(O2) (Vmax(O2)*100%)” value (solv. acetic acid, t 30 min) was 4% and the “O2 evolution V(O2) (Vmax(O2)*100%)” value (solv. acetic acid, t 35 min) was 4%. The “O2 evolution V(O2) (Vmax(O2)*100%)” value (solv. acetic acid, t 40 min) was 4%, the “O2 evolution V(O2) (Vmax(O2)*100%)” value (solv. acetone, t 1 min) was 10% and the “O2 evolution V(O2) (Vmax(O2)*100%)” value (solv. acetone, t 2 min) was 20%. The “O2 evolution V(O2) (Vmax(O2)*100%)” value (solv. acetone, t 5 min) was 29%, the “O2 evolution V(O2) (Vmax(O2)*100%)” value (solv. acetone, t 10 min) was 29% and the “O2 evolution V(O2) (Vmax(O2)*100%)” value (solv. acetone, t 15 min) was 29%. For the same compound, the “O2 evolution V(O2) (Vmax(O2)*100%)” value (solv. acetone, t 20 min) was 29%, the “O2 evolution V(O2) (Vmax(O2)*100%)” value (solv. acetone, t 25 min) was 29% and the “O2 evolution V(O2) (Vmax(O2)*100%)” value (solv. acetone, t 30 min) was 29%. The “O2 evolution V(O2) (Vmax(O2)*100%)” value (solv. acetone, t 35 min) was 29%, the “O2 evolution V(O2) (Vmax(O2)*100%)” value (solv. acetone, t 40 min) was 29% and the “O2 evolution V(O2) (Vmax(O2)*100%)” value (solv. acetonitrile, t 1 min) was 9%. The “O2 evolution V(O2) (Vmax(O2)*100%)” value (solv. acetonitrile, t 2 min) was 18%, the “O2 evolution V(O2) (Vmax(O2)*100%)” value (solv. acetonitrile, t 5 min) was 30% and the “O2 evolution V(O2) (Vmax(O2)*100%)” value (solv. acetonitrile, t 10 min) was 40%. For the same compound, the “O2 evolution V(O2) (Vmax(O2)*100%)” value (solv. acetonitrile, t 15 min) was 47%, the “O2 evolution V(O2) (Vmax(O2)*100%)” value (solv. acetonitrile, t 20 min) was 51% and the “O2 evolution V(O2) (Vmax(O2)*100%)” value (solv. acetonitrile, t 25 min) was 53%. For the same compound, the “O2 evolution V(O2) (Vmax(O2)*100%)” value (solv. acetonitrile, t 30 min) was 53%, the “O2 evolution V(O2) (Vmax(O2)*100%)” value (solv. acetonitrile, t 35 min) was 53% and the “O2 evolution V(O2) (Vmax(O2)*100%)” value (solv. acetonitrile, t 40 min) was 53%. The “O2 evolution V(O2) (Vmax(O2)*100%)” value (solv. ethyl acetate, t 1 min) was 8%, the “O2 evolution V(O2) (Vmax(O2)*100%)” value (solv. ethyl acetate, t 2 min) was 12% and the “O2 evolution V(O2) (Vmax(O2)*100%)” value (solv. ethyl acetate, t 5 min) was 20%. The “O2 evolution V(O2) (Vmax(O2)*100%)” value (solv. ethyl acetate, t 10 min) was 29%, the “O2 evolution V(O2) (Vmax(O2)*100%)” value (solv. ethyl acetate, t 15 min) was 32% and the “O2 evolution V(O2) (Vmax(O2)*100%)” value (solv. ethyl acetate, t 20 min) was 37%. For the same compound, the “O2 evolution V(O2) (Vmax(O2)*100%)” value (solv. ethyl acetate, t 25 min) was 40%, the “O2 evolution V(O2) (Vmax(O2)*100%)” value (solv. ethyl acetate, t 30 min) was 42% and the “O2 evolution V(O2) (Vmax(O2)*100%)” value (solv. ethyl acetate, t 35 min) was 47%. The “O2 evolution V(O2) (Vmax(O2)*100%)” value (solv. ethyl acetate, t 40 min) was 50%, the “O2 evolution V(O2) (Vmax(O2)*100%)” value (solv. methanol, t 1 min) was 10% and the “O2 evolution V(O2) (Vmax(O2)*100%)” value (solv. methanol, t 2 min) was 19%. The “O2 evolution V(O2) (Vmax(O2)*100%)” value (solv. methanol, t 5 min) was 32%, the “O2 evolution V(O2) (Vmax(O2)*100%)” value (solv. methanol, t 10 min) was 43% and the “O2 evolution V(O2) (Vmax(O2)*100%)” value (solv. methanol, t 15 min) was 49%. For the same compound, the “O2 evolution V(O2) (Vmax(O2)*100%)” value (solv. methanol, t 20 min) was 52%, the “O2 evolution V(O2) (Vmax(O2)*100%)” value (solv. methanol, t 25 min) was 53% and the “O2 evolution V(O2) (Vmax(O2)*100%)” value (solv. methanol, t 30 min) was 53%. The “O2 evolution V(O2) (Vmax(O2)*100%)” value (solv. methanol, t 35 min) was 53%, the “O2 evolution V(O2) (Vmax(O2)*100%)” value (solv. methanol, t 40 min) was 53% and the “O2 evolution V(O2) (Vmax(O2)*100%)” value (solv. t-butanol, t 1 min) was 2%. For the same compound, the “O2 evolution V(O2) (Vmax(O2)*100%)” value (solv. t-butanol, t 2 min) was 5%, the “O2 evolution V(O2) (Vmax(O2)*100%)” value (solv. t-butanol, t 5 min) was 10% and the “O2 evolution V(O2) (Vmax(O2)*100%)” value (solv. t-butanol, t 10 min) was 18%. For the same compound, the “O2 evolution V(O2) (Vmax(O2)*100%)” value (solv. t-butanol, t 15 min) was 21%, the “O2 evolution V(O2) (Vmax(O2)*100%)” value (solv. t-butanol, t 20 min) was 23% and the “O2 evolution V(O2) (Vmax(O2)*100%)” value (solv. t-butanol, t 25 min) was 25%. The “O2 evolution V(O2) (Vmax(O2)*100%)” value (solv. t-butanol, t 30 min) was 25%, the “O2 evolution V(O2) (Vmax(O2)*100%)” value (solv. t-butanol, t 35 min) was 25% and the “O2 evolution V(O2) (Vmax(O2)*100%)” value (solv. t-butanol, t 40 min) was 25%. For the same compound, the “O2 evolution V(O2) (Vmax(O2)*100%)” value (solv. water, t 1 min) was 9%, the “O2 evolution V(O2) (Vmax(O2)*100%)” value (solv. water, t 2 min) was 17% and the “O2 evolution V(O2) (Vmax(O2)*100%)” value (solv. water, t 5 min) was 30%. The “O2 evolution V(O2) (Vmax(O2)*100%)” value (solv. water, t 10 min) was 40%, the “O2 evolution V(O2) (Vmax(O2)*100%)” value (solv. water, t 15 min) was 48% and the “O2 evolution V(O2) (Vmax(O2)*100%)” value (solv. water, t 20 min) was 51%. The “O2 evolution V(O2) (Vmax(O2)*100%)” value (solv. water, t 25 min) was 55%, the “O2 evolution V(O2) (Vmax(O2)*100%)” value (solv. water, t 30 min) was 55% and the “O2 evolution V(O2) (Vmax(O2)*100%)” value (solv. water, t 35 min) was 55%. The “O2 evolution V(O2) (Vmax(O2)*100%)” value (solv. water, t 40 min) was 55%.
